ChEMBL document CHEMBL4312025, “Synthesis, antiproliferative activity and DNA/RNA-binding properties of mono- and bis-(1,2,3-triazolyl)-appended benzimidazo[1,2-a]quinoline derivatives” (Eur J Med Chem, 2020)
Active and inactive are the calls of the source. No cut-off for these calls is given here.

Columns and labels:
NCI-H460 = assay: Growth inhibition of human H460 cells incubated for 72 hrs by MTT assay; format: functional; details: NCI-H460, 72 h
MCF7 = assay: Growth inhibition of human MCF7 cells incubated for 72 hrs by MTT assay; format: functional; details: MCF7, 72 h
HCT-116 = assay: Growth inhibition of human HCT116 cells incubated for 72 hrs by MTT assay; format: functional; details: HCT-116, 72 h
[1] = Growth inhibition of human HaCaT cells incubated for 72 hrs by MTT assay; format: cell-based
[2] = system: Poly(dA-dU)oligonucleotide; assay: Binding affinity to polyA-polyU dsRNA (unknown origin) assessed as change in melting temperature in sodium cacodylate buffer at pH 7 at compound:polynucleotide concentration ratio of 0.2 by thermal denaturation assay; format: nucleic-acid assay
[3] = Solubility of the compound in 0.05 M sodium cacodylate buffer with <0.01% DMSO upto 1X10'-5 mol/dm3 by UV/Visible spectra analysis; format: physicochemical
Calf thymus DNA [4] = assay: Binding affinity to calf thymus dsDNA assessed as binding constant in sodium cacodylate buffer at pH 7 by fluorescence spectroscopy; format: nucleic-acid assay; details: Bos taurus
[5] = Drug uptake in nucleus of human H460 cells at 1 uM incubated for 15 mins by fluorescence microscopy; format: ADME, cell-based; details: nci-h460, 0.25 h
Calf thymus DNA [6] = assay: Binding affinity to calf thymus dsDNA assessed as ratio for fluorescence intensity of compound to fluorescence intensity for compound-polynucleotide complex in sodium cacodylate buffer at pH 7 by fluorescence spectroscopy based Scatchard method; format: nucleic-acid assay; details: Bos taurus
Calf thymus DNA [7] = assay: Binding affinity to calf thymus dsDNA assessed as stabilization of mixed DNA base pairs in sodium cacodylate buffer at pH 7 at compound:polynucleotide concentration ratio of 0.2 by thermal denaturation assay; format: nucleic-acid assay; details: Bos taurus
Calf thymus DNA [8] = assay: Binding affinity to calf thymus dsDNA assessed as change in melting temperature in sodium cacodylate buffer at pH 7 at compound:polynucleotide concentration ratio of 0.2 by thermal denaturation assay; format: nucleic-acid assay; details: Bos taurus
Calf thymus DNA [9] = assay: Binding affinity to calf thymus dsDNA assessed as intercalating activity by measuring weak negative ICD band between 300 and 330 nm in sodium cacodylate buffer at pH 7 at compound:polynucleotide concentration ratio of 0.1 to 0.3 by CD spectroscopy; format: nucleic-acid assay; details: Bos taurus
[10] = system: Poly(dA-dU)oligonucleotide; assay: Binding affinity to polyA-polyU dsRNA (unknown origin) assessed as intercalating activity by measuring decrease in CD spectra of polynucleotides in sodium cacodylate buffer at pH 7 at compound:polynucleotide concentration ratio of 0.1 to 0.4 by CD spectroscopy; format: nucleic-acid assay
[11] = system: Poly(dA-dU)oligonucleotide; assay: Binding affinity to polyA-polyU dsRNA (unknown origin) assessed as decrease in emission intensity of the compound in sodium cacodylate buffer at pH 7 at 1X10'-6 mol/dm3 by fluorescence spectroscopy; format: nucleic-acid assay
Calf thymus DNA [12] = assay: Binding affinity to calf thymus dsDNA assessed as intercalating activity by measuring decrease in CD spectra of polynucleotides in sodium cacodylate buffer at pH 7 at compound:polynucleotide concentration ratio of 0.1 to 0.3 by CD spectroscopy; format: nucleic-acid assay; details: Bos taurus
Calf thymus DNA [13] = assay: Binding affinity to calf thymus ds-DNA assessed as decrease in emission intensity of the compound in sodium cacodylate buffer at pH 7 at 1X10'-6 mol/dm3 by fluorescence spectroscopy; format: nucleic-acid assay; details: Bos taurus
Calf thymus DNA [14] = assay: Binding affinity to calf thymus dsDNA assessed as ratio for bound compound to polynucleotide in sodium cacodylate buffer at pH 7 by fluorescence spectroscopy based Scatchard analysis; format: nucleic-acid assay; details: Bos taurus
[15] = Drug uptake in cytoplasm of human H460 cells assessed as perinuclear reticular staining at 1 uM incubated for 15 mins by fluorescence microscopy; format: ADME, cell-based; details: nci-h460, 0.25 h

GI50 (NCI-H460)	GI50 (MCF7)	GI50 (HCT-116)	SMILES	GI50 at 72 h [1]	also measured
3 µM	3 µM	1.6 µM	N#Cc1c(-n2cc(C3CC3)nn2)c2ccc(-n3cc(C4CC4)nn3)cc2n2c1nc1ccccc12	3.24 µM	
≥ 100 µM	35 µM	59 µM	N#Cc1c(-n2cc(CCO)nn2)c2ccc(-n3cc(CCO)nn3)cc2n2c1nc1ccccc12		
3 µM	6.9 µM	2.5 µM	N#Cc1c(-n2cc(CCCCl)nn2)c2ccc(-n3cc(CCCCl)nn3)cc2n2c1nc1ccccc12	3.2 µM	ΔTm [2]: 0 °C; solubility [3]: Soluble; log Ks (Calf thymus DNA [4]): 5.4; Drug uptake [5]: Not Active; Ratio (Calf thymus DNA [6]): 0.8; Activity (Calf thymus DNA [7]): Active; ΔTm (Calf thymus DNA [8]): 1.5 °C; Activity (Calf thymus DNA [9]): Active; Activity [10]: Active; Activity [11]: Active; Activity (Calf thymus DNA [12]): Active; Activity (Calf thymus DNA [13]): Active; Ratio (Calf thymus DNA [14]): 0.1; Drug uptake [15]: Active
0.1 µM	1 µM	5 µM	COc1cc([C@@H]2c3cc4c(cc3[C@@H](O[C@@H]3O[C@@H]5CO[C@@H](C)O[C@H]5[C@H](O)[C@H]3O)[C@H]3COC(=O)[C@H]23)OCO4)cc(OC)c1O [ETOPOSIDE]		
2 µM	4.5 µM	2 µM	N#Cc1c(-n2cc(-c3cc(C(F)(F)F)cc(C(F)(F)F)c3)nn2)c2ccc(F)cc2n2c1nc1ccccc12	2.1 µM	
1 µM	4 µM	1 µM	N#Cc1c(-n2cc(-c3cc(C(F)(F)F)cc(C(F)(F)F)c3)nn2)c2ccccc2n2c1nc1ccccc12	2.2 µM	
62 µM	28.5 µM	35 µM	CCCCCCCCCCc1cn(-c2c(C#N)c3nc4ccccc4n3c3ccccc23)nn1		
59.5 µM	31 µM	25 µM	N#Cc1c(-n2cc(-c3ccc(Br)cc3)nn2)c2ccccc2n2c1nc1ccccc12		
3.4 µM	3.9 µM	2 µM	N#Cc1c(-n2cc(CNS(=O)(=O)c3ccc(F)cc3)nn2)c2ccc(F)cc2n2c1nc1ccccc12	2.9 µM	
32 µM	24 µM	7 µM	CCCCCc1ccc(-c2cn(-c3c(C#N)c4nc5ccccc5n4c4cc(F)ccc34)nn2)cc1		
